Data published in patent publication US20200383985A1, “Inhibitors of Protease Activated Receptor-2” (Endosome Therapeutics, Inc., priority 2017, published 2020).
Starred links: 1 amine or outer side, 2 acyl side, 3 side chain; linkers in the order of their positions; H or OH if unused. Positions of bridges follow the written chain, without caps; N, C: chain ends. Non-standard residues stand in square brackets, D forms with d. Residues, ends and D or L forms follow the SMILES beside them. *: point of attachment. Leu(3R-OH,Nα-propionyl) = CCC(=O)N[C@H](C(=O)*)[C@H](O)C(C)C; X1 = CC(C)[C@@H](O[*:3])[C@H](N[*:1])C(=O)[*:2]; NMeT = CN[C@H](C(=O)O)[C@@H](C)O; dPhLac = O=C(O)[C@H](O)Cc1ccccc1; NMeA = CN[C@@H](C)C(=O)O; NMeDha = C=C(NC)C(=O)O

Assays:
Type in all cases: cell-based
[1] = tested on: cytosolic and nuclear ERK; test: FRET assays of cytosolic and nuclear ERK in HEK293 cells; conditions: UBO-QIC 100 nM, G66983 1 μM; for trypsin-stimulated activation of cytosolic ERK: AG1478 1 μM
Protocol: Trypsin-induced ERK signaling mediated by endosomal PAR2 signaling was investigated in HEK293 cells expressing Flag-PAR2-HA11 and FRET biosensors for cytosolic and nuclear ERK (CytoEKAR, NucEKAR), plasma membrane and cytosolic PKC (pmCKAR, CytoCKAR), and plasma membrane and cytosolic cAMP (pmEpac, CytoEpac). […] I-343 (10 μM) but not SCH530348 (100 nM) inhibited trypsin activation of cytosolic and nuclear ERK (FIG. 5G). PS2 and DynK44E inhibited trypsin-stimulated activation of cytosolic and nuclear ERK when compared to PS2 inact and DynWT controls (FIG. 5H, 5I, 17G-J). AG1478 (1 μM), an inhibitor of EGF receptor tyrosine kinase (Levitzki, A. & Gazit, A. Science 1995, 267(5205): 1782-1788), UBO-QIC (100 nM), which inhibits Gαq and certain Gβγ signals ([…]), and G66983 (1 μM), which inhibits all isoforms of PKC (Gschwendt, M, et al., FEBS Lett 1996, 392(2): 77-80), suppressed trypsin-stimulated activation of cytosolic ERK (FIGS. 5J and 17K).
HEK293 cells were cultured in DMEM supplemented with 10% (v/v) FBS (5% CO2, 37° C.). When necessary serum restriction was achieved by replacing culture medium with DMEM containing 0.5% FBS overnight. Cells were transiently transfected using polyethylenimine (PEI) (1:6 DNA:PEI).
HEK293 cells were transiently transfected in 10 cm dishes (˜50% confluency) with Flag-PAR2-HA (2.5 μg) and FRET biosensors CytoEKAR or NucEKAR (2.5 μg) (Jensen, D. D. et al., Sci Transl Med. 2017, 9(392), eaal3447; Thomsen, A. R. B., et al., Cell 2016, 166(4): 907-919). In experiments examining the role of dynamin, cells were transfected with FLAG-PAR2-HA (1.25 μg), FRET biosensor (1.25 μg) and either DynWT-HA, DynK44E-HA or pcDNA3.1 (2.5 μg). At 24 h after transfection, cells were seeded on ViewPlate-96 well plates (PerkinElmer). FRET was assessed 72 h post-transfection, following overnight serum restriction. Cells were equilibrated in HBSS-HEPES (30 min, 37° C.). FRET was measured using a PHERAstar FSX Microplate Reader (BMG LabTech). For CFP/YFP emission ratio analysis, cells were sequentially excited using a CFP filter (425/10 nm) with emission measured using YFP (550/50 nm) and CFP (490/20 nm) filters. FRET was measured before and after stimulation with trypsin (10 nM), NE (100 nM), CS (100 nM), phorbol 12,13-dibutyrate, PDBu (positive control, 1 μM), or vehicle. FRET ratios (donor/acceptor intensity for EKAR, or acceptor/donor intensity for CKAR and Epac) were calculated and corrected to baseline and vehicle treatments to determine ligand-induced FRET (ΔFRET). Treatment effects were determined by comparison of area under the curve values. Signalling inhibitors were dissolved in HBSS-HEPES. PS2 and PS2 inact were dissolved in HBSS-HEPES+1% DMSO. Cells were incubated with UBO-QIC (100 nM), AG1478 (1 μM), G66983 (1 μM), PS2 or PS2 inact (30 μM) or vehicle (30 min preincubation, inclusion throughout).

[2] = tested on: mouse DRG neurons; test: Patch clamp rheobase of DRG neurons: IBS-D biopsy supernatant-induced hyperexcitability; conditions: I-343 10 μM, Dy4 30 μM, PD98059 50 μM
Protocol: An investigation as whether proteases from mucosal biopsies of IBS patients cause a persistent hyperexcitability of nociceptors was conducted by a mechanism that entails endosomal signaling of PAR2. Biopsies of colonic mucosa from patients with diarrhea-predominant IBS (IBS-D) or healthy control (HC) subjects were placed in culture medium (24 h, 37° C.). Mouse DRG neurons were then exposed to biopsy supernatants (30 min, 37° C.) and washed. Rheobase was measured 30 min after washing to assess persistent hyperexcitability. Supernatants of biopsies from IBS-D patients caused a persistent decrease in rheobase, consistent with hyperexcitability, when compared to supernatants from HC subjects (rheobase at 30 min: HC, 78.33±4.41 pA, 12 neurons, supernatant from 4 HC; IBS-D, 54.55±4.74 pA, 11 neurons, supernatant from 4 IBS-D; P<0.05; ANOVA, Tukey's multiple comparisons test) (FIG. 6A, B). I-343 (10 μM), Dy4 (dynamin inhibitor, 30 μM) and PD98059 (MEK1 inhibitor, 50 μM) abolished IBS-D-induced hyperexcitability of nociceptors (FIG. 6A-D).
The Queen's University Human Ethics Committee approved human studies. All subjects gave informed consent. Endoscopic biopsies were obtained from the descending colon of 13 adult IBS-D patients (12 female) diagnosed using ROME III criteria for diarrhea predominant IBS and of 12 health controls. All IBS patients had symptoms greater than 1 year and most were greater than 5 years. Celiac disease was excluded by blood test and patients over 40 years with daily diarrhea were biopsied at the time of colonoscopy to exclude microscopic colitis. […] Biopsies (8 samples per patient) were incubated in 250 μl of RPMI medium containing 10% fetal calf serum, penicillin/streptomycin and gentamicin/amphotericin B (95% O2/5% […], 24 h, 37° C.). Supernatants were stored at −80° C. Supernatants from 4-6 patients were pooled and studied in individual experiments.
DRG innervating the colon (T9-T13) were collected from C57BL/6 mice. Ganglia were digested by incubation in collagenase IV (1 mg/ml, Worthington) and dispase (4 mg/ml, Roche) (10 min, 37° C.). DRG were triturated with a fire-polished Pasteur pipette, and further digested (5 min, 37° C.). Neurons were washed, plated onto laminin- (0.017 mg/ml) and poly-D-lysine- (2 mg/ml) coated glass coverslips, and were maintained in F12 medium containing 10% fetal calf serum, penicillin and streptomycin (95% air, 5% CO2, 16 h, 37° C.) until retrieval for electrophysiological studies.
Small-diameter (<30 pF capacitance) neurons were studied because they display characteristics of nociceptors (Valdez-Morales E. E. et al., Am J Gastroenterol 2013, 108(10): 1634-1643). Changes in excitability were quantified by measuring rheobase. Whole-cell perforated patch-clamp recordings were made using Amphotericin B (240 μg/ml, Sigma Aldrich) in current clamp mode at room temperature. The recording chamber was perfused with external solution at 2 ml/min. Recordings were made using Multiclamp 700B or Axopatch 200B amplifiers, digitized by Digidata 1440A or 1322A, and processed using pClamp 10.1 software (Molecular Devices). Solutions had the composition (mM): pipette—K-gluconate 110, KC130, HEPES 10, MgCl2 1, CaCl2 2; pH 7.25 with 1 M KOH; external—NaCl 140, KCl 5 HEPES 10, glucose 10, MgCl2 1, CaCl2 2; pH to 7.3-7.4 with 3 M NaOH. […] Neurons were also preincubated with trypsin (50 nM, 10 min), NE (390 nM, 30 min), CS (500 nM, 60 min), or vehicle (37° C.), and washed. Rheobase was measured at T 0 or T 30 min after washing. To investigate mechanisms of protease-evoked effects, neurons were incubated with I-343 (100 nM, 300 nM, 10 μM, 30 min preincubation), SCH79797 (1 μM, 10 min), Dy4 (30 μM, 30 min), PS2 (15 μM, 30 min), PD98059 (50 μM, 30 min), GF109203X (10 μM, 30 min), or vehicle (preincubation and inclusion throughout). In experiments using the tripartite antagonist, neurons were preincubated with Compound 10 (30 μM, 60 min, 37° C.) or vehicle and washed. […]

[3] = tested on: mouse DRG neurons; test: Patch clamp rheobase of DRG neurons: protease-induced hyperexcitability of nociceptors; conditions: PD98059 50 μM, GF109203X 10 μM

SMILES	trypsin-stimulated activation of cytosolic ERK [1]	trypsin-stimulated activation of nuclear ERK [1]	IBS-D-induced hyperexcitability of nociceptors [2]	rheobase of neurons exposed to HC supernatant [2]	initial trypsin-induced hyperexcitability [3]	persistent trypsin-induced hyperexcitability [3]
COc1ccc2c(c1)c(C1=C(c3c[nH]c4ccccc34)C(=O)NC1=O)cn2CCCN(C)C [Compound G66983]	suppressed	inhibited				
COc1cccc(-c2cc(=O)c3ccccc3o2)c1N [PD98059]			abolished	no effect	did not affect	prevented
C=C1C(=O)N[C@@H](C)C(=O)N(C)[C@@H](C)C(=O)N[C@@H]([C@H](OC(=O)[C@@H](NC(=O)CC)[C@H](O)C(C)C)C(C)C)C(=O)N(C)[C@@H]([C@@H](C)OC)C(=O)O[C@H](C(C)C)[C@H](NC(C)=O)C(=O)O[C@H](Cc2ccccc2)C(=O)N1C [UBO-QIC] (Ac-[X1][dPhLac][NMeDha]A[NMeA][X1](Leu(3R-OH,Nα-propionyl))[NMeT](Me); ester 1-C)	suppressed	inhibited				
